Test results as given in patent publication US4353907A, “Amidino hydrazone . C17 H29-35 COOH insect and fire ant bait formulations” (American Cyanamid Co., priority 1981, dated 1982).
Values joined by “and” are separate entries in the source; they are usually repeats but may differ in a detail not shown here. Identical values can stand only once.

Assays:
[1] = test system: Tobacco budworm (Heliothis vireacens), 1st instar; assay: Screening, TBW 1st instar test; format: in vivo
Procedure: Insect: Tobacco budworm (Heliothis vireacens), 1st instar.
Test: Screening, TBW 1st instar test.
(§1) Formulation: 50:50 acetone:water
Concentrations: Screening: 300, 100, 10, 1 ppm
(§2) Plant Preparation: Cotton plants are selected to give plants with the first true leaf expanded to about 6-7 cm in length.
Insect Preparation: Cheesecloth on which moths have oviposited is daily cut into 10-20 mm squares containing 50-100 eggs each. These squares are held at 21° C. for 2 days and 24° C. for another day in order to coordinate hatch with testing times. Thus, the larvae are 0-2 hours old at time of use.
Test Procedure: The cotton plant is dipped in the test formulation, agitated for 3 seconds, and placed in the hood to air dry. When dry, the leaf is removed from the plant and placed in an "8-ounce Dixie cup (240 ml, 6 cm high, top diameter 9.5 cm, bottom diameter (8 cm)" to which a 5 cm length of damp cotton dental wick had been previously added. A square of cheesecloth with newly hatched budworm larvae on it is placed on the treated leaf and a clear plastic lid is put on the cup.
Holding Conditions: The cups are held at 27° C. for 2 days.
Observations: Kill of larvae. This may require the use of a low-power microscope to determine if the worms are dead or just not feeding. Observation of amount of feeding is also recorded. Where there is only trace to light feeding, the cup is held an extra day and results recorded at that time. The standard rating system of 0-9 is used.

[2] = test system: Bean aphid (Aphis fabae), mixed stages; assay: Screening: bean aphid test; format: in vivo; conditions: 100 ppm
Procedure: Insect: Bean aphid (Aphis fabae), mixed stages.
Test: Screening: bean aphid test
(§3) Formulation: 50:50 acetone:water.
Plant Preparation: 5 cm pots each containing a nasturtium plant about 5 cm tall are infested with 100 to 400 aphids 2-4 days before the test.
Insect Preparation: See above.
Test Procedure: The pot of aphids is sprayed for 2 revolutions of a 4 rpm turntable in the hood, using a #154 DeVilbiss atomizer at 1500 kg/m^2 pressure. The spray tip is held about 15 cm from the plant and the spray directed so as to give complete coverage of the aphid and the plants. The sprayed plants are laid on their sides on white enamel trays measuring 24×34 cm.
Holding Conditions: Trays of sprayed pots are held at 27° C. for 1 day.
Observations: Mortality estimates are made and data recorded with the standard […] rating system.
NOTE: For LD50 determinations, a clean tray 24×34 cm is ruled off into a grid with 3 cm spacing and the live aphids gently brushed off the plant onto the gridded tray. This makes it easier to make an exact count of the number of aphids on the plant. Dead aphids, which fall off the plant onto the tray, are counted where they fall, since they stick to the tray and cannot be brushed onto a gridded tray for counting.

[3] = test system: Tobacco budworm (Heliothis virescens), egg; assay: Screening, TBW egg test (tobacco budworm eggs); format: in vivo; conditions: 300 ppm
Description: Insect: Tobacco budworm (Heliothis virescens), egg
Test: Screening, TBW egg test.
as §3
Concentrations: Screening: 300, 100, 10, 1 ppm.
as §2
Insect Preparation: Eggs are collected on cheesecloth used as the lid for the moth oviposition chamber in the rearing colony. This cloth is cut into 10-20 mm squares containing about 50-100 budworm eggs laid within the past day. Thus, eggs are 6-30 hours old when used in the test.
Test Procedures: The cotton plant is dipped in the test formulation and agitated for 3 seconds. A square of cheesecloth with eggs is also dipped in the test formulation, placed on the treated leaf and the combination placed in the hood to air dry. When dry, the leaf and egg cloth are removed from the plant, and placed in an "8-ounce Dixie cup (240 ml. 6 cm high, top diameter 9.5 cm. bottom diameter 8 cm)," to which a 5 cm length of damp cotton dental wick had been previously added. A clear plastic lid is placed on the cup.
Holding Conditions: The cups are held at 27° C. until the eggs hatch, which occurs in about 2 days.
Observations: Kill of eggs. This may require the use of a low-power microscope to determine if the lack of visible mobile caterpillars is due to lack of egg hatch or due to the newly hatched caterpillars dying on the leaf under and near the cheesecloth. The standard rating system of 0-9 is used to record the results.

[4] = test system: Southern armyworm (Spodoptera eridania), 3rd instar; assay: Screening: Southern armyworm larva; format: in vivo
Procedure: Insect: Southern armyworm (Spodoptera eridania). 3rd instar.
Test: Screening: Southern armyworm larva.
Formulation: 2:1 acetone:water.
Plant Preparation: Sieva lima bean plants are selected with primary leaves 7-8 cm long and cut back to one plant per pot.
Insect Preparation: A 100×10 mm petri dish is prepared by putting a damp filter paper in the bottom and ten 3rd instar larvae are added. These are about 10 mm long.
Test Procedure: The bean plant is dipped for 3 seconds with agitation in the test formulation and placed in the hood to dry. One leaf is removed from the plant and placed in the petri dish with the caterpillars.
Holding Conditions: The dish is held at 27° C. The plant with the remaining leaf is held in the greenhouse under high intensity lights.
Observations: Mortality counts are made after 2 days and recorded using the standard 0-9 rating system.

[5] = Determination of Solubility in Soybean Oil (HPLC of oil phase after equilibration); format: physicochemical; conditions: for % Salt in Oil Layer / % Amidino Hydrazone in Oil Layer (w/w), Average: 25° C.; for % Salt in Oil Layer: footnote * formula (drawing 4); for % Amidino Hydrazone in Oil Layer (w/w), Average: average of duplicates; for % Amidino Hydrazone in Oil Layer (w/w): individual duplicate, equilibrated at 100° C. 4 hours, cooled to 25° C.
Procedure: Each salt of example 1 was equilibrated with approximately 3/8 its weight of soybean oil at 100° C. for 4 hours with ultrasonic agitation. The resulting mixtures were centrifuged while hot and allowed to cool to room temperature (25° C.). […] Duplicate samples of the oil phases were analyzed by solution in methylene chloride and quantitation by HPLC.

[6] = test system: Phosphate resistant 2-spotted spider mite (Tetranychus urticae); assay: Screening: Mite test; format: in vivo; conditions: 300 ppm
Procedure: Mite: Phosphate resistant 2-spotted spider mite
(Tetranychus urticae), adults, eggs, nymphs.
Test: Screening: Mite test.
as §1
Plant Preparation: Sieva lima bean plants with primary leaves 7-8 cm long are selected and cut back to one plant per pot. A small piece is cut off of a leaf taken from the main mite colony and placed on each leaf of the test plants. This is done about 1-3 hours before use to allow the mites to move over to the test plant and lay eggs before treatment. The size of the piece cut is varied to try to obtain about 100 mites per leaf.
Mite Preparation: See above.
Test Procedure: The piece of leaf used to transfer mites is removed and discarded. The mite-infested plant is dipped in the test formulation for 3 seconds with agitation, and the plant set in the hood to dry.
Holding Conditions: The plants are held for 2 days at 27° C. for the first observation, and the second leaf is kept on the plant for another 5 days for the final observation.
Observations: After 2 days one leaf is removed and examined under a 10×microscope to determine the mortality of the adult mites. The second leaf is examined similarly 7 days after treatment to observe the kill of eggs and of newly hatched nymphs giving a measure of ovicidal and residual action, respectively. Any evidence of phytotoxicity from the test treatment is noted. The standard rating system of 0-9 is used to record the mite data.

[7] = Solubility of the toxicant in fatty acids and edible fats and oils; format: physicochemical
[8] = listed as Amidino Hydrazone Salt Of Linolenic Acid
[9] = listed as Amidino Hydrazone Salt Of Oleic Acid
[10] = listed as Amidino Hydrazone Salt Of Linoleic Acid
[11] = listed as Amidino Hydrazone Salt Of Stearic Acid

Compound	1st Instar Tobacco Budworms control rating ([1]; 10 ppm)	Budworm Eggs control rating [3]	3rd Instar Armyworms control rating ([4]; 100 ppm)	3rd Instar Armyworms control rating ([4]; 1000 ppm)	P-res. Mites control rating [6]	1st Instar Tobacco Budworms control rating ([1]; 100 ppm)	1st Instar Tobacco Budworms control rating ([1]; 300 ppm)	Aphids control rating [2]	3rd Instar Armyworms control rating ([4]; 10 ppm)	further results
CC1(C)CN=C(NN=C(C=Cc2ccc(C(F)(F)F)cc2)C=Cc2ccc(C(F)(F)F)cc2)NC1 [Amidino Hydrazone Linolenate]	0 (0 control)	0 (0 control)	9 (100% control)	9 (100% control)	0 (0 control)	–	–	–	–	1st Instar Tobacco Budworms control rating ([1]; 100 ppm, listed as Amidino Hydrazine Linolenate): 9 (100% control); 1st Instar Tobacco Budworms control rating ([1]; 300 ppm, listed as Amidino Hydrazine Linolenate): 9 (100% control); Aphids control rating ([2]; listed as Amidino Hydrazine Linolenate): 5 (60% control); 3rd Instar Armyworms control rating ([4]; 10 ppm, listed as Amidino Hydrazine Linolenate): 9 (100% control); % Salt in Oil Layer [5, 8]: 55%; % Amidino Hydrazone in Oil Layer (w/w), Average [5, 8]: 35.4 % (w/w); % Amidino Hydrazone in Oil Layer (w/w) [5, 8]: 35.9 % (w/w) and 34.8 % (w/w)
CC1(C)CN=C(NN=C(C=Cc2ccc(C(F)(F)F)cc2)C=Cc2ccc(C(F)(F)F)cc2)NC1 [Amidino Hydrazone Oleate]	0 (0 control)	0 (0 control)	9 (100% control)	9 (100% control)	0 (0 control)	0 (0 control)	7 (80% control)	0 (0 control)	6 (70% control)	% Salt in Oil Layer [5, 9]: 44%; % Amidino Hydrazone in Oil Layer (w/w), Average [5, 9]: 28.0 % (w/w); % Amidino Hydrazone in Oil Layer (w/w) [5, 9]: 27.8 % (w/w) and 28.1 % (w/w)
CC1(C)CN=C(NN=C(C=Cc2ccc(C(F)(F)F)cc2)C=Cc2ccc(C(F)(F)F)cc2)NC1 [Amidino Hydrazone Linoleate]	0 (0 control)	0 (0 control)	9 (100% control)	9 (100% control)	0 (0 control)	7 (80% control)	9 (100% control)	0 (0 control)	9 (100% control)	% Salt in Oil Layer [5, 10]: 47%; % Amidino Hydrazone in Oil Layer (w/w), Average [5, 10]: 30.3 % (w/w); % Amidino Hydrazone in Oil Layer (w/w) [5, 10]: 30.3 % (w/w) and 30.4 % (w/w)
CC1(C)CN=C(NN=C(C=Cc2ccc(C(F)(F)F)cc2)C=Cc2ccc(C(F)(F)F)cc2)NC1 [Amidino Hydrazone, 1,5-bis(alpha,alpha,alpha-trifluoro-p-tolyl)-1,4-pentadien-3-one (1,4,5,6-tetrahydro-5,5-dimethyl-2-pyrimidinyl)hydrazone]	–	–	–	–	–	–	–	–	–	solubility in edible fats and oils attractive to fire ants ([7]; edible fats and oils as solvents for the toxicant): not very good solvents; solubility in fatty acids ([7]; oleic, linoleic, linolenic, stearic acid and mixtures): readily soluble
CC1(C)CN=C(NN=C(C=Cc2ccc(C(F)(F)F)cc2)C=Cc2ccc(C(F)(F)F)cc2)NC1 [Amidino Hydrazone Stearate, 1,4-pentadien-3-one, 1,5-bis(alpha,alpha,alpha-trifluoro-p-tolyl)-(1,4,5,6-tetrahydro-5,5-dimethyl-2-pyrimidinyl)hydrazone stearate]	0 (0 control)	0 (0 control)	9 (100% control)	9 (100% control)	0 (0 control)	9 (100% control)	9 (100% control)	8 (90% control)	9 (100% control)	% Salt in Oil Layer [5, 11]: 47%; % Amidino Hydrazone in Oil Layer (w/w), Average [5, 11]: 30.1 % (w/w); % Amidino Hydrazone in Oil Layer (w/w) [5, 11]: 29.8 % (w/w) and 30.4 % (w/w)
